Results from ChEMBL document CHEMBL6120938, “Covalent small-molecule inhibitors of SARS-CoV-2 Mpro: Insights into their design, classification, biological activity, and binding interactions” (Eur J Med Chem, 2024).
Where a SMILES comes first, the peptide text is derived from it. The star is where a group is joined. Octanoyl = CCCCCCCC(=O)*; Boc = CC(C)(C)OC(=O)*

Test system: not listed separately
Test: Inhibition of SARS-CoV-2 Main protease
Design: species or system Severe acute respiratory syndrome coronavirus 2
Conditions: not given
With C=CC(=O)N(c1ccc(C(C)(C)C)cc1)C(C(=O)NCc1ccccc1)c1cccnc1 (stereo not drawn) the IC50 was 2.86 µM. With CC(C)C[C@H](NC(=O)OCc1cccc(F)c1)C(=O)N[C@H](C=O)C[C@@H]1CCNC1=O the IC50 was 0.13 µM. Work on C=CC(=O)N(c1ccc(C(C)(C)C)cc1)C(C(=O)NC(C)(C)C)c1cccnc1 (stereo not drawn) yielded an IC50 of 2.95 µM. For CCOC(=O)/C=C/[C@H](C[C@@H]1CCNC1=O)NC(=O)[C@@H](CC(=O)[C@@H](NC(=O)OCc1ccccc1)[C@H](C)OC(C)(C)C)CC(C)O (stereo partly drawn), the IC50 was 0.151 µM. For CC(C)C[C@H](NC(=O)OC(c1ccccc1)C1CCC(F)(F)CC1)C(=O)N[C@H](C=O)C[C@H]1CCNC1=O (stereo partly drawn), the IC50 was 0.13 µM. In the case of COc1cccc2[nH]c(C(=O)N[C@@H](CC(C)C)C(=O)N[C@H](C=O)C[C@@H]3CCNC3=O)cc12, the IC50 is reported as 0.13 µM.

Test system: SARS-CoV-2
Test: Antiviral activity against SARS-CoV-2 infected in African green monkey Vero cells assessed as reduction in viral replication incubated for 72 hrs by RT-qPCR analysis
Format: functional, organism-based
Conditions: Severe acute respiratory syndrome coronavirus 2, Vero
CCC[C@H](NC(=O)[C@@H]1[C@H]2CCC[C@H]2CN1C(=O)[C@@H](NC(=O)[C@@H](NC(=O)c1cnccn1)C1CCCCC1)C(C)(C)C)C(=O)C(=O)NC1CC1 gave an EC50 of 1.31 µM.

Test system: not listed separately
Test: Inhibition of recombinant SARS-CoV-2 Wuhan-Hu-1 main protease extracted from Escherichia coli cells using Dabcyl-KTSAVLQSGFRKME-Edans as substrate incubated for 60 mins by FRET assay
Design: species or system Severe acute respiratory syndrome coronavirus 2
Conditions: not given
For CC(C)(C)OC(=O)NCC(=O)N[C@@H](Cc1ccccc1)C(=O)N[C@H](C=O)Cc1c[nH]cn1 (Boc-Gly-Phe-His-aldehyde), the IC50 was 6.49 µM. With CCCCCCCC(=O)NCC(=O)N[C@@H](Cc1ccccc1)C(=O)N[C@H](C=O)Cc1c[nH]cn1 (Octanoyl-Gly-Phe-His-aldehyde) the IC50 was 2.37 µM. Molecule CC(=O)NCC(=O)N[C@@H](Cc1ccccc1)C(=O)N[C@H](C=O)Cc1c[nH]cn1 (Ac-Gly-Phe-His-aldehyde) has an IC50 of 2.51 µM.

Target: T1, Replicase polyprotein 1ab (Severe acute respiratory syndrome coronavirus 2, UniProt P0DTD1)
Test: Inhibition of SARS-CoV-2 3CL protease by luciferase reporter assay
Conditions: not given
C=CC(=O)N(CCC)[C@H](C(=O)NCc1ccc2c(c1)OCO2)c1cccc(O)c1 gave an IC50 of 1 µM. Work on C=CC(=O)O[C@H](CC)C(=O)NCCc1c[nH]c2ccccc12 yielded an IC50 of 139 µM. With O=C(CCl)Nc1sc(-c2ccccc2)cc1C(=O)NC1CC1 the IC50 was 2.36 µM. With C=CC(=O)O[C@H](C(=O)NCc1cccc(OC)c1OC)c1ccc([N+](=O)[O-])cc1 the IC50 was 9.39 µM.

Target: T1, Replicase polyprotein 1ab
Test: Inhibition of SARS-CoV-2 3CL protease using DabcylKTSAVLQSGFRKME-Edans amide as substrate measured for 1 hrs by FRET assay
Conditions: not given
Work on COc1ccccc1[C@@H]1C[C@H]1COC(=O)N[C@@H](CC(C)C)C(=O)N[C@@H](CC1CCNC1=O)C(O)S(=O)(=O)O (stereo partly drawn) yielded an IC50 of 0.14 µM. For CC(C)C[C@H](NC(=O)OC[C@@H]1C[C@H]1c1cccc(F)c1)C(=O)N[C@@H](CC1CCNC1=O)C(O)S(=O)(=O)O (stereo partly drawn), the IC50 was 0.14 µM. Work on CC(C)C[C@H](NC(=O)OC[C@@H]1C[C@H]1c1cccc(F)c1)C(=O)N[C@H](C=O)CC1CCNC1=O (stereo partly drawn) yielded an IC50 of 0.14 µM. Molecule COc1ccccc1[C@@H]1C[C@H]1COC(=O)N[C@@H](CC(C)C)C(=O)N[C@H](C=O)CC1CCNC1=O (stereo partly drawn) has an IC50 of 0.14 µM.

Test system: not listed separately
Test: Inhibition of SARS-CoV-2 Main protease using DABCYL-KTSAVLQ-SGFRKM-E(EDANS) as substrate pre-treated for 15 mins and measured for 60 mins by FRET assay
Design: species or system Severe acute respiratory syndrome coronavirus 2
Conditions: not given
Molecule Cc1ccc(COc2cc(Br)cnc2C=O)cc1[N+](=O)[O-] has an IC50 of 12 µM. With O=Cc1ncc(Br)cc1OCc1ccc(Cl)c(Br)c1 the IC50 was 6 µM. For O=Cc1ncc(Br)cc1OCc1ccc(Cl)c([N+](=O)[O-])c1, the IC50 was 1 µM. For O=Cc1ncc(Br)cc1OCc1cc(Br)ccc1Cl, the IC50 was 6 µM. In the case of O=Cc1ncc(Br)cc1OCc1ccc2ccccc2c1, the IC50 is reported as 26 µM.

Target: T1, Replicase polyprotein 1ab
Test: Inhibition of SARS-CoV-2 3CL protease
Conditions: not given
In the case of CC(C)C[C@H](NC(=O)OCC1CCC(F)(F)CC1)C(=O)N[C@@H](C[C@@H]1CCNC1=O)C(O)S(=O)(=O)O (stereo partly drawn), the IC50 is reported as 0.1 µM. With CCC1(OC(=O)N[C@@H](CC(C)C)C(=O)N[C@H](C=O)C[C@@H]2CCNC2=O)COCOC1 the IC50 was 0.45 µM. Work on C=CS(=O)(=O)N(c1ccc(C(C)(C)C)cc1)C(C(=O)NCCc1cccc(OC)c1)c1cccnc1 (stereo not drawn) yielded an IC50 of 0.24 µM. For S=C(S)NCc1cccnc1, the IC50 was 0.03 µM. Molecule CCC1CCC(OC(=O)N[C@@H](CC(C)C)C(=O)N[C@H](C=O)C[C@@H]2CCNC2=O)CC1 (stereo partly drawn) has an IC50 of 1.1 µM. With C=CS(=O)(=O)N(c1ccc(C(C)(C)C)cc1)C(C(=O)NCCc1cccc(Cl)c1)c1cccnc1 (stereo not drawn) the IC50 was 0.00017 µM.

Test system: not listed separately
Test: Inhibition of SARS-Cov-2 Main protease by FRET assay
Design: species or system Severe acute respiratory syndrome coronavirus 2
Conditions: not given
Work on CCOC(=O)/C=C/[C@H](C[C@@H]1CCNC1=O)NC(=O)[C@H](CC#N)n1cccc(NC(=O)c2cc(C)on2)c1=O yielded an IC50 of 101 µM.

Test system: not listed separately
Test: Inhibition of MERS-CoV 3CLpro by FRET assay
Design: species or system Middle East respiratory syndrome-related coronavirus
Conditions: not given
COc1ccccc1[C@@H]1C[C@H]1COC(=O)N[C@@H](CC(C)C)C(=O)N[C@@H](CC1CCNC1=O)C(O)S(=O)(=O)O (stereo partly drawn) gave an IC50 of 0.07 µM. Work on CC(C)C[C@H](NC(=O)OC[C@@H]1C[C@H]1c1cccc(F)c1)C(=O)N[C@@H](CC1CCNC1=O)C(O)S(=O)(=O)O (stereo partly drawn) yielded an IC50 of 0.07 µM. CC(C)C[C@H](NC(=O)OC[C@@H]1C[C@H]1c1cccc(F)c1)C(=O)N[C@H](C=O)CC1CCNC1=O (stereo partly drawn) gave an IC50 of 0.07 µM. Molecule COc1ccccc1[C@@H]1C[C@H]1COC(=O)N[C@@H](CC(C)C)C(=O)N[C@H](C=O)CC1CCNC1=O (stereo partly drawn) has an IC50 of 0.07 µM.

Test system: SARS-CoV-2
Test: Antiviral activity against SARS-CoV-2 infected in Vero E6 cells assessed as reduction in viral replication
Format: functional, organism-based
Conditions: Severe acute respiratory syndrome coronavirus 2, Vero C1008
Cc1cc(C(=O)N[C@@H](C)C(=O)N[C@H](C(=O)N[C@@H](CC(C)C)[C@H](/C=C/C(=O)OCc2ccccc2)C[C@@H]2CCNC2=O)C(C)C)no1 showed an EC50 of 16.8 µM. With O=C[C@H](C[C@@H]1CCNC1=O)NC(=O)[C@@H]1[C@H]2CCC[C@H]2CN1C(=O)CCc1ccc(Cl)cc1Cl the EC50 was 0.54 µM. O=C1c2ccccc2CCC1CNCCc1ccc(O)cc1 (stereo not drawn) gave an EC50 of 24.1 µM. Molecule Cc1ccc(C(=O)C(C)CN2CCCCC2)cc1 (stereo not drawn) [TOLPERISONE] has an EC50 of 19.2 µM.
